Measured values reported in PubChem BioAssay (NCI).
Values joined by “and” are separate entries in the source; they are usually repeats but may differ in a detail not shown here. Equal values may be shown once.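 In this assay, cells in 96-well plates receive the compound at five concentrations for 48 hours. Endpoints are linearly interpolated between the surrounding concentrations. The concentration for 50% growth inhibition is given as GI50. At the TGI there is no net growth.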

Columns and labels:
Assay in all cases: NCI tumour cell line growth inhibition, 48 h
[1] = test system: OVCAR-3 ovarian
[2] = test system: MALME-3M melanoma
[3] = test system: CAKI-1 renal
[4] = test system: DMS 273 small cell lung
[5] = test system: NCI-H460 lung
[6] = test system: OVCAR-5 ovarian
[7] = test system: KM12 colon
[8] = test system: HCT-116 colon
[9] = test system: HOP-18 NSCLC
[10] = test system: KM20L2 colon
[11] = test system: OVCAR-8 ovarian
[12] = test system: RPMI-8226 leukemia
[13] = test system: MCF7 breast
[14] = test system: HT29 colon
[15] = test system: SK-MEL-2 melanoma
[16] = test system: A549 NSCLC
[17] = test system: P388/ADR leukemia
[18] = test system: SN12K1 renal
[19] = test system: LOX IMVI melanoma
[20] = test system: HL-60(TB) leukemia
[21] = test system: A498 renal
[22] = test system: UO-31 renal
[23] = test system: COLO 205 colon
[24] = test system: EKVX NSCLC
[25] = test system: SNB-78 CNS
[26] = test system: NCI-H23 lung
[27] = test system: U251 CNS
[28] = test system: P388 leukemia
[29] = test system: IGROV1 ovarian
[30] = test system: HOP-92 NSCLC
[31] = test system: SN12C renal
[32] = test system: HOP-62 NSCLC
[33] = test system: SK-MEL-28 melanoma
[34] = test system: SNB-19 CNS
[35] = test system: UACC-257 melanoma
[36] = test system: NCI-H226 lung
[37] = test system: HCT-15 colon
[38] = test system: M19-MEL melanoma
[39] = test system: HCC-2998 colon
[40] = test system: RXF 393 renal
[41] = test system: SF-539 CNS
[42] = test system: NCI-H522 lung
[43] = test system: SNB-75 CNS
[44] = test system: SF-295 CNS
[45] = test system: DMS 114 small cell lung
[46] = test system: UACC-62 melanoma
[47] = test system: OVCAR-4 ovarian
[48] = test system: MOLT-4 leukemia
[49] = test system: SK-MEL-5 melanoma
[50] = test system: SF-268 CNS
[51] = test system: NCI/ADR-RES ovarian
[52] = test system: SK-OV-3 ovarian
[53] = test system: K-562 leukemia
[54] = test system: TK-10 renal
[55] = test system: XF 498 CNS
[56] = test system: DLD-1 colon
[57] = test system: SW-620 colon
[58] = test system: PC-3 prostate
[59] = test system: DU-145 prostate
[60] = test system: CCRF-CEM leukemia
[61] = test system: ACHN renal
[62] = test system: 786-0 renal
[63] = test system: MDA-MB-435
[64] = test system: T-47D breast
[65] = test system: MDA-MB-231 breast
[66] = test system: SR leukemia
[67] = test system: M14 melanoma
[68] = test system: BT-549 breast

In the case of `COC(=O)C[C@](O)(CCC(C)(C)O)C(=O)O[C@@H]1C(OC)=C[C@]23CCCN2CCc2cc4c(cc2[C@H]13)OCO4`, the TGI [1] is reported as 0.459 µM, the TGI [2] is reported as 0.109 µM and the TGI [3] is reported as 1.64 µM. It also gave a TGI [4] of 0.131 µM, a TGI [5] of 0.0793 µM and a TGI [6] of 1.08 µM. The TGI [7] was 1.21 µM, the TGI [8] was 0.15 µM and the TGI [9] was 0.756 µM. For the same molecule, the TGI [10] was 0.74 µM, the TGI [11] was 0.571 µM and the TGI [12] was 0.701 µM. The TGI [13] was 0.113 µM, the TGI [14] was 1.06 µM and the TGI [15] was 0.407 µM. The TGI [16] was 0.45 µM, the TGI [17] was > 100 µM and the TGI [18] was 0.359 µM. For the same molecule, the TGI [19] was 0.426 µM, the TGI [20] was 0.743 µM and the TGI [21] was 0.26 µM. For the same molecule, the TGI [22] was 7.01 µM, the TGI [23] was 0.255 µM and the TGI [24] was 0.43 µM. It also gave a TGI [25] of 1.04 µM, a TGI [26] of 0.323 µM and a TGI [27] of 0.379 µM. For the same molecule, the TGI [28] was 0.133 µM, the TGI [29] was 0.506 µM and the TGI [30] was 0.653 µM. For the same molecule, the TGI [31] was 1.07 µM, the TGI [32] was 0.59 µM and the TGI [33] was 0.294 µM. It also gave a TGI [34] of 0.28 µM, a TGI [35] of 0.537 µM and a TGI [36] of 0.124 µM. The TGI [37] was 2.07 µM, the TGI [38] was 0.363 µM and the TGI [39] was 0.0855 µM. The TGI [40] was 0.518 µM, the TGI [41] was 0.102 µM and the TGI [42] was 0.0597 µM. For the same molecule, the TGI [43] was 0.95 µM, the TGI [44] was 0.61 µM and the TGI [45] was 0.0597 µM. For the same molecule, the TGI [46] was 1.12 µM, the TGI [47] was 0.478 µM and the TGI [48] was > 100 µM. It also gave a TGI [49] of 0.202 µM, a TGI [50] of 0.496 µM and a TGI [51] of 59.8 µM. For the same molecule, the TGI [52] was 0.915 µM and the TGI [53] was > 100 µM.
With `CCCCc1oc2ccccc2c1C(=O)c1cc(I)c(OCCN(CC)CC)c(I)c1` the GI50 [1] was 3.69 µM, the TGI [1] was 14.7 µM and 16.9 µM and the GI50 [2] was 1.86 µM. For the same molecule, the TGI [2] was 3.71 µM and 8.57 µM, the GI50 [3] was 2.51 µM and the TGI [3] was 10.7 µM and 15.5 µM. For the same molecule, the TGI [4] was 7.74 µM, the TGI [5] was 3.87 µM and the GI50 [6] was 2.46 µM. The TGI [6] was 7.27 µM and 10.9 µM, the GI50 [54] was 5.12 µM and the TGI [54] was 17.8 µM. The GI50 [7] was 1.84 µM, the TGI [7] was 3.61 µM and 12.3 µM and the GI50 [8] was 1.82 µM. For the same molecule, the TGI [8] was 3.88 µM and 9.07 µM, the TGI [9] was 1.29 µM and the GI50 [11] was 3.37 µM and 11 µM. For the same molecule, the TGI [11] was 13.2 µM and 92.5 µM, the TGI [55] was 8.25 µM and the TGI [56] was 54.1 µM. The GI50 [57] was 1.76 µM, the TGI [57] was 4.13 µM and 9.18 µM and the GI50 [12] was 1.92 µM. The TGI [12] was 4.91 µM and 9.09 µM, the GI50 [13] was 1.78 µM and the TGI [13] was 3.71 µM and 10.8 µM. For the same molecule, the GI50 [14] was 1.97 µM, the TGI [14] was 5.01 µM and 8.27 µM and the GI50 [16] was 3.72 µM. The TGI [16] was 15.8 µM and 70.3 µM, the TGI [18] was 7.45 µM and the GI50 [19] was 1.49 µM. The TGI [19] was 2.82 µM and 7.86 µM, the GI50 [20] was 1.93 µM and the TGI [20] was 3.88 µM and 7.09 µM. For the same molecule, the TGI [21] was 14.3 µM, the GI50 [22] was 2.54 µM and 7.07 µM and the TGI [22] was 13.2 µM and 28.4 µM. The GI50 [23] was 1.89 µM, the TGI [23] was 3.4 µM and 7.84 µM and the GI50 [24] was 2.86 µM. For the same molecule, the TGI [24] was 14.8 µM and 47.1 µM, the TGI [25] was 25 µM and the GI50 [26] was 2.67 µM. For the same molecule, the TGI [26] was 8.87 µM and 18 µM, the GI50 [27] was 1.57 µM and the TGI [27] was 3 µM and 7.73 µM. For the same molecule, the TGI [28] was 11.2 µM, the GI50 [58] was 1.95 µM and the TGI [58] was 8.91 µM. For the same molecule, the GI50 [29] was 4.66 µM, the GI50 [59] was 5.28 µM and the TGI [59] was 17.8 µM. The GI50 [60] was 1.82 µM, the TGI [60] was 4.35 µM and 12 µM and the GI50 [30] was 0.625 µM. For the same molecule, the TGI [30] was 2.46 µM and 10.3 µM, the GI50 [61] was 4.14 µM and the TGI [61] was 15.6 µM. The GI50 [31] was 3.08 µM, the TGI [31] was 14.8 µM and 27.9 µM and the GI50 [32] was 2.36 µM. The TGI [32] was 6.25 µM and 30.7 µM, the GI50 [62] was 1.64 µM and the TGI [62] was 3.31 µM. The GI50 [33] was 1.91 µM, the TGI [33] was 4 µM and 10.1 µM and the GI50 [63] was 2.41 µM. The TGI [63] was 6.53 µM, the GI50 [34] was 2.04 µM and the TGI [34] was 5.35 µM and 18.7 µM. For the same molecule, the GI50 [64] was 3.16 µM, the TGI [64] was 12.2 µM and the GI50 [35] was 2.32 µM. For the same molecule, the TGI [35] was 6.42 µM and 9.04 µM, the GI50 [36] was 2.84 µM and the TGI [36] was 12.7 µM and 8.55 µM. The GI50 [37] was 2.06 µM, the TGI [37] was 4.68 µM and 8.21 µM and the GI50 [39] was 1.69 µM. For the same molecule, the TGI [39] was 3.23 µM and 7.89 µM, the GI50 [40] was 1.26 µM and the TGI [40] was 2.97 µM and 8.79 µM. The TGI [41] was 10.5 µM, the GI50 [42] was 1.79 µM and the TGI [42] was 3.48 µM and 12.3 µM. For the same molecule, the GI50 [43] was 1.92 µM, the TGI [43] was 10.9 µM and 22.9 µM and the GI50 [44] was 1.88 µM. The TGI [44] was 3.81 µM and 8.35 µM, the GI50 [65] was 2 µM and the TGI [65] was 5.18 µM. It also gave a GI50 [66] of 1.68 µM, a TGI [66] of 4.24 µM and a TGI [46] of 3.83 µM. For the same molecule, the GI50 [47] was 3.47 µM, the TGI [47] was 16.2 µM and 20.9 µM and the GI50 [48] was 1.92 µM. For the same molecule, the TGI [48] was 4.27 µM and 7.8 µM, the TGI [49] was 2.76 µM and the GI50 [50] was 3.28 µM. The TGI [50] was 14 µM and 38.9 µM, the GI50 [51] was 1.94 µM and the TGI [51] was 4.54 µM and 16.5 µM. The GI50 [67] was 2.18 µM, the TGI [67] was 4.78 µM and the GI50 [52] was 2.69 µM. The TGI [52] was 6.41 µM and 20.1 µM, the GI50 [68] was 3.26 µM and the TGI [68] was 9.38 µM. The TGI [53] was 9.87 µM.
